We go through 18 molecules from patent US4026896A, “Aromatic amidocarboxylic acids and pharmaceutical compositions thereof” (Kissei Yakuhin Kogyo Kabushiki Kaisha (Kissei …, priority 1974, dated 1977).

The first test deals with homologous passive cutaneous anaphylaxis (PCA). The experiment in a line: Homologous passive cutaneous anaphylaxis (PCA) in rats, test compounds given orally. Format: in vivo, Wistar male rats. As to conditions: po; rat, 200 mg/kg p.o., 2 hours prior to injection of antigen and Evans blue; read-out: INHIBITION (%) of PCA (amount of dye leaked vs control group). As for the experimental part:
"Homologous passive cutaneous anaphylaxis (PCA) in rats."
Wistar male rats weighing from 120 to 150 g were used in the present experiment. Reaginic antibody was obtained from rats immunized with 2,4-dinitrophenyl-coupled ascaris extract (DNP-As) mixed with Bordetella pertussis. Normal rats were sensitized passively with an intradermal injection of the diluted antiserum. After 48 hours of the sensitization, the mixture of antigen (DNP-As) and Evans blue was injected intravenously. The animals were sacrificed by a blow on the head 30 minutes after challenging with antigen. The area blued as a result of PCA was excised and the amount of dye leaked was measured photometrically after the extraction of same with acetone containing sodium carbonate.
The test compounds were suspended in 0.5% aqueous solution of sodium carboxymethylcellulose (CMC) and administered 200 mg/kg p.o. 2 hours prior to the injection of a mixture of antigen and Evans blue. […] The efficacy of the test compounds to inhibit the PCA was compared with the value (%) calculated using the following formula: [formula] A: Amount of dye leaked in the control group B: Amount of dye leaked in the group treated with test compound
In the case of `COc1ccc(C(C)=CC(=O)Nc2ccccc2CC(=O)O)cc1OC` [2-(3',4'-dimethoxy-β-methylcinnamoylamino)phenylacetic], the inhibition in vivo at 200 mg/kg was 37.3%.
Still for that read-out and setting: next, `COc1ccc(C=CC(=O)Nc2ccccc2OCC(=O)O)cc1OC` [2-(3',4'-dimethoxycinnamoylamino)phenoxyacetic acid]: 42.6%; `COc1ccc(C=CC(=O)Nc2ccccc2CC(=O)O)cc1OC` [2-(3',4'-dimethoxycinnamoylamino)phenylacetic acid]: 63.9%.
On the same count and under the same terms, next, `COc1ccc(CCC(=O)Nc2ccccc2OCC(=O)O)cc1OC` [2-(3',4'-dimethoxyhydrocinnamoylamino)phenoxyacetic acid]: 25.9%; `CCCOc1ccc(C=CC(=O)Nc2ccccc2OCC(=O)O)cc1OC` [2-(3'-methoxy,4'-propoxycinnamoylamino)phenoxyacetic acid]: 32.1%.
Same read-out and setting: next, `O=C(O)Cc1ccccc1NC(=O)C=Cc1ccc(Cl)cc1` [2-(4'-chlorocinnamoylamino)phenylacetic acid]: 53.3%; `O=C(C=Cc1ccccc1)Nc1cccc(C(=O)O)c1` [3-(cinnamoylamino)benzoic acid, reference compound]: 10.8%.
Consider `O=C(O)Cc1cccc(NC(=O)C=Cc2ccccc2)c1` [3-(cinnamoylamino)phenylacetic acid], for which the inhibition in vivo at 200 mg/kg turned out to be 39.8%.
As to `O=C(O)Cc1ccc(NC(=O)C=Cc2ccc(O)cc2)cc1` [4-(4'-hydroxycinnamoylamino)phenylacetic acid], the inhibition in vivo at 200 mg/kg was 34.3%.
Regarding `O=C(C=Cc1ccccc1)Nc1ccc(C(=O)O)cc1` [4-(cinnamoylamino)benzoic acid, reference compound], the inhibition in vivo at 200 mg/kg was found to be 7.5%.
Still for that read-out and setting: next, `O=C(C=Cc1ccccc1)Nc1ccccc1C(=O)O` [N-cinnamoyl-anthranilic acid, reference compound]: 18.1%; `OCC(O)COc1ccc(Cl)cc1` (stereo not shown) [chlorphenesin, reference compound]: 39.7%.
Consider `COc1ccc(C=CC(=O)Nc2ccccc2CCC(=O)O)cc1OC` [β-[2-(3',4'-dimethoxycinnamoylamino)]phenylpropionic], for which the inhibition in vivo at 200 mg/kg is 27%.
On to `COc1ccc(C=CC(=O)Nc2cccc(CCC(=O)O)c2)cc1OC` [β-[3-(3',4'-dimethoxycinnamoylamino)]phenylpropionic], for which the inhibition in vivo at 200 mg/kg was found to be 47.2%.

Still in this test, the particulars now being: rat, 200 mg/kg p.o., 2 hours prior to injection of antigen and Evans blue.
For `COc1ccc(C=CC(=O)Nc2ccc(CC(=O)O)cc2)cc1` [4-(4'-methoxy-β-cinnamoylamino)phenylacetic acid], the “INHIBITION (%) of PCA (amount of dye leaked vs control group)” value came out at 85.3%.
Take `Cc1ccc(C=CC(=O)Nc2ccc(OCC(=O)O)cc2)cc1` [β-[4-(4'-methylcinnamoylamino)]phenoxyacetic acid]: the “INHIBITION (%) of PCA (amount of dye leaked vs control group)” value is on record as 75.9%.

A further test relates to experimental anaphylaxis / antiallergic effect.
Test: not given
As to conditions: oral, mammalia; known reference compounds; cited from earlier work.
On to `O=C(O)c1cc(=O)c2c(OCC(O)COc3cccc4oc(C(=O)O)cc(=O)c34)cccc2o1` [disodium chromoglycate], for which the “antiallergic effect when administered orally” value is “not at all expected when this compound is administered orally”.
Take “cinnamoylaminobenzoic acid [unsubstituted cinnamoylaminobenzoic acid]”: the “antiallergic effect when administered orally” value is “only a slightly weak antiallergic effect”.

In another test the test system is release of chemical mediators from cells.
Test: not given
As to conditions: caused by an antigen-antibody reaction; cited from earlier work.
Consider `O=C(O)c1cc(=O)c2c(OCC(O)COc3cccc4oc(C(=O)O)cc(=O)c34)cccc2o1` [disodium chromoglycate], for which the “inhibiting release of chemical mediators from cells” value was “effective for inhibiting release of chemical mediators from cells”.
